Source: ChEMBL document CHEMBL1201862, “PubChem BioAssay data set” (2004)
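Following 48 hours of exposure in 96-well plates, responses at five concentrations were used to interpolate endpoints linearly. Abbreviation: GI50, concentration required for 50% inhibition of growth.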 Calls of active or inactive are those of the source. No stated cut-off is given here; in the data, active = GI50 up to about 1.1 µM and inactive = higher.

Columns and labels:
Experiment in all cases: NCI-60 cell line screen, 48 h
[1] = system: SR
[2] = system: MCF7
[3] = system: HT-29
[4] = system: RPMI-8226
[5] = system: PC-3
[6] = system: RXF 393
[7] = system: OVCAR-5
[8] = system: NCI-H226
[9] = system: CCRF-CEM
[10] = system: MDA-MB-231
[11] = system: Hs-578T
[12] = system: NCI-H460
[13] = system: IGROV-1
[14] = system: U-251
[15] = system: ACHN
[16] = system: NCI-H522
[17] = system: OVCAR-3
[18] = system: SF-295
[19] = system: SNB-75

Row | SMILES | GI50 [1] | GI50 [2] | GI50 [3] | GI50 [4] | GI50 [5] | GI50 [6] | GI50 [7] | GI50 [8] | GI50 [9] | GI50 [10] | GI50 [11] | GI50 [12] | GI50 [13] | GI50 [14] | GI50 [15] | GI50 [16] | GI50 [17] | GI50 [18] | GI50 [19]
1 | Cc1occc1C(=S)Nc1ccc(Cl)c(C(=O)OC(C(C)C)C(C)C)c1 | 7 µM (inactive) | 13.1 µM (inactive) | 14.1 µM (inactive) | 6.11 µM (inactive) | 7.46 µM (inactive) | 13.3 µM (inactive) | 22.6 µM (inactive) | 15.2 µM (inactive) | 7.16 µM (inactive) | 12.6 µM (inactive) | 17.6 µM (inactive) | 13.6 µM (inactive) | 15.2 µM (inactive) | 10.8 µM (inactive) | 12.1 µM (inactive) | 11.8 µM (inactive) | 13.4 µM (inactive) | 5.47 µM (inactive) | –
2 | Cc1ccc2c(c1)SC1=Nc3sc4cc(C)ccc4[n+]3CN12 | – | 4.44 µM (inactive) | 6.82 µM (inactive) | 1.81 µM (inactive) | 15.4 µM (inactive) | 78.5 µM (inactive) | 18.3 µM (inactive) | 15.8 µM (inactive) | – | 10.8 µM (inactive) | 6.87 µM (inactive) | 11.7 µM (inactive) | 16.1 µM (inactive) | 2.58 µM (inactive) | 30.2 µM (inactive) | 1.05 µM (active) | 1.01 µM (active) | – | 11.4 µM (inactive)
3 | CC(O)(c1ccccc1)c1nccc2ccccc12 (stereo not given) | – | 80.9 µM (inactive) | 74.3 µM (inactive) | 37.3 µM (inactive) | 22.6 µM (inactive) | > 100 µM (inactive) | 67.1 µM (inactive) | 31.5 µM (inactive) | 58.6 µM (inactive) | 20.1 µM (inactive) | 45.8 µM (inactive) | 96.4 µM (inactive) | 37.8 µM (inactive) | 45.5 µM (inactive) | > 100 µM (inactive) | 50.5 µM (inactive) | 57.9 µM (inactive) | 55 µM (inactive) | 53.7 µM (inactive)
4 | Cc1ccc(NC(=O)CC(=O)n2nc(C)c(/N=N/c3ccc(S(=O)(=O)CCOS(=O)(=O)O)cc3)c2C)cc1 | – | > 100 µM (inactive) | > 100 µM (inactive) | > 100 µM (inactive) | > 100 µM (inactive) | > 100 µM (inactive) | > 100 µM (inactive) | > 100 µM (inactive) | > 100 µM (inactive) | > 100 µM (inactive) | > 100 µM (inactive) | > 100 µM (inactive) | > 100 µM (inactive) | > 100 µM (inactive) | > 100 µM (inactive) | > 100 µM (inactive) | > 100 µM (inactive) | 97.1 µM (inactive) | > 100 µM (inactive)
5 | COc1cc2c(cc1OC)C1C3CCCCC3CCN1CC2 (stereo not given) | > 100 µM (inactive) | 0.36 µM (active) | 88.9 µM (inactive) | – | > 100 µM (inactive) | 27 µM (inactive) | > 100 µM (inactive) | 88.1 µM (inactive) | > 100 µM (inactive) | > 100 µM (inactive) | > 100 µM (inactive) | > 100 µM (inactive) | > 100 µM (inactive) | > 100 µM (inactive) | > 100 µM (inactive) | > 100 µM (inactive) | 79.4 µM (inactive) | 83.8 µM (inactive) | 18.3 µM (inactive)
6 | CCC/C(Cl)=N\OC(=O)Nc1ccc(OC(F)(F)F)cc1 | – | 8.26 µM (inactive) | 18.2 µM (inactive) | 2.11 µM (inactive) | 17.7 µM (inactive) | 16 µM (inactive) | 19.6 µM (inactive) | 15.6 µM (inactive) | 2.47 µM (inactive) | 9.93 µM (inactive) | 28.1 µM (inactive) | 20.5 µM (inactive) | 6.93 µM (inactive) | 27 µM (inactive) | 2.19 µM (inactive) | 1.08 µM (active) | 11.3 µM (inactive) | 16.3 µM (inactive) | 15.6 µM (inactive)
7 | O=C(C=P(c1ccccc1)(c1ccccc1)c1ccccc1)c1cccc(-c2cccc([N+](=O)[O-])c2)c1 | 2.58 µM (inactive) | 3.47 µM (inactive) | 1.8 µM (inactive) | 1.98 µM (inactive) | 2.84 µM (inactive) | 5.66 µM (inactive) | 3.1 µM (inactive) | – | 2.55 µM (inactive) | 2 µM (inactive) | 3.44 µM (inactive) | 2.88 µM (inactive) | 2.94 µM (inactive) | 3.89 µM (inactive) | 2.89 µM (inactive) | 1.86 µM (inactive) | 3.03 µM (inactive) | 3.18 µM (inactive) | 1.51 µM (inactive)
8 | COC(=O)c1cc2c(c(C(=O)OC)c1)CCC2 | 30.3 µM (inactive) | > 100 µM (inactive) | 40.6 µM (inactive) | > 100 µM (inactive) | 68.5 µM (inactive) | 82.6 µM (inactive) | > 100 µM (inactive) | – | 50.8 µM (inactive) | 82.8 µM (inactive) | > 100 µM (inactive) | > 100 µM (inactive) | > 100 µM (inactive) | > 100 µM (inactive) | > 100 µM (inactive) | 58.2 µM (inactive) | 49.4 µM (inactive) | > 100 µM (inactive) | 34.8 µM (inactive)
9 | NC1CC2C3CCC2C1C3=O (stereo not given) | > 100 µM (inactive) | > 100 µM (inactive) | > 100 µM (inactive) | – | > 100 µM (inactive) | > 100 µM (inactive) | > 100 µM (inactive) | > 100 µM (inactive) | > 100 µM (inactive) | > 100 µM (inactive) | > 100 µM (inactive) | > 100 µM (inactive) | > 100 µM (inactive) | > 100 µM (inactive) | > 100 µM (inactive) | > 100 µM (inactive) | > 100 µM (inactive) | > 100 µM (inactive) | 4.76 µM (inactive)
10 | Nc1nc(NNc2ccc(Cl)c(Cl)c2)cc(=O)[nH]1 | 31.7 µM (inactive) | 17.3 µM (inactive) | 34.4 µM (inactive) | 32.2 µM (inactive) | 34 µM (inactive) | 25.5 µM (inactive) | 43.4 µM (inactive) | 78.9 µM (inactive) | 36.4 µM (inactive) | 33.8 µM (inactive) | 30.5 µM (inactive) | 41.6 µM (inactive) | 28.4 µM (inactive) | 24.2 µM (inactive) | 35.6 µM (inactive) | – | 23 µM (inactive) | 54.1 µM (inactive) | –
11 | Cc1c(/C=N/NC(=S)Nc2ccccc2)c(=O)n(-c2ccccc2)n1C | > 100 µM (inactive) | > 100 µM (inactive) | > 100 µM (inactive) | > 100 µM (inactive) | > 100 µM (inactive) | > 100 µM (inactive) | – | > 100 µM (inactive) | 48 µM (inactive) | > 100 µM (inactive) | > 100 µM (inactive) | > 100 µM (inactive) | > 100 µM (inactive) | > 100 µM (inactive) | > 100 µM (inactive) | – | – | > 100 µM (inactive) | > 100 µM (inactive)
12 | Cc1cc(-c2nc3ccccc3s2)ccc1NC(=O)[C@H](C)N | 5.2 µM (inactive) | 0.372 µM (active) | 14.4 µM (inactive) | – | 13.1 µM (inactive) | 12.3 µM (inactive) | 0.441 µM (active) | 0.942 µM (active) | 7.89 µM (inactive) | 14.3 µM (inactive) | 24.3 µM (inactive) | 10.1 µM (inactive) | 4.38 µM (inactive) | 15 µM (inactive) | 13.6 µM (inactive) | 24.2 µM (inactive) | 11.4 µM (inactive) | 15.3 µM (inactive) | 12.5 µM (inactive)
13 | Cc1ccc(S(=O)(=O)N/N=C/C2(c3ccccc3)c3ccccc3-c3ccccc32)cc1 | 7.45 µM (inactive) | 6.98 µM (inactive) | 12.5 µM (inactive) | 7.45 µM (inactive) | 3.38 µM (inactive) | 13 µM (inactive) | 12.4 µM (inactive) | 14.7 µM (inactive) | 4.16 µM (inactive) | 6.64 µM (inactive) | 14.3 µM (inactive) | 5.06 µM (inactive) | 10.5 µM (inactive) | 11.8 µM (inactive) | 4.94 µM (inactive) | 13 µM (inactive) | 7.71 µM (inactive) | 3.21 µM (inactive) | –
14 | O=c1[nH]c2ccc(O)cc2o1 | > 100 µM (inactive) | > 100 µM (inactive) | > 100 µM (inactive) | – | > 100 µM (inactive) | 2.49 µM (inactive) | > 100 µM (inactive) | > 100 µM (inactive) | > 100 µM (inactive) | > 100 µM (inactive) | > 100 µM (inactive) | > 100 µM (inactive) | > 100 µM (inactive) | > 100 µM (inactive) | > 100 µM (inactive) | > 100 µM (inactive) | > 100 µM (inactive) | > 100 µM (inactive) | 42.7 µM (inactive)
15 | O=C(c1ccccc1)c1c2ccccn2c2cccc[n+]12 | > 100 µM (inactive) | > 100 µM (inactive) | > 100 µM (inactive) | > 100 µM (inactive) | > 100 µM (inactive) | > 100 µM (inactive) | > 100 µM (inactive) | > 100 µM (inactive) | > 100 µM (inactive) | > 100 µM (inactive) | > 100 µM (inactive) | > 100 µM (inactive) | > 100 µM (inactive) | > 100 µM (inactive) | – | – | > 100 µM (inactive) | > 100 µM (inactive) | > 100 µM (inactive)
16 | Cc1cc2cc3c(cc2c(-c2ccc(N)cc2)n1)OCO3 | 15.6 µM (inactive) | 7.74 µM (inactive) | 22.2 µM (inactive) | 23.8 µM (inactive) | 40.7 µM (inactive) | – | 36.6 µM (inactive) | – | 28.5 µM (inactive) | 13.7 µM (inactive) | 51.3 µM (inactive) | 21.3 µM (inactive) | 14.5 µM (inactive) | 62.5 µM (inactive) | 39.5 µM (inactive) | 42.5 µM (inactive) | 22.4 µM (inactive) | 34.2 µM (inactive) | –
